# Experimental data: patent US20240246941A1, “SUBSTITUTED 4-(3-AMINOPROP-1-YL)AMINOQUINOLINE ANALOGS AS MODULATORS OF MELANOMA-ASSOCIATED ANTIGEN 11 UBIQUITIN LIGASE” (ST. JUDE CHILDREN'S RESEARCH HOSPITAL, INC., priority 2020, published 2024)
# Molecular target: interaction between GST-MAGEA11 MHD and FAM-PCF11_4 peptide (MAGE-A11:PCF11) (Homo sapiens (Human), UniProt P43364)
# Assay: TR-FRET dose response competition assay for disruption of MAGE-A11:PCF11 binding
# Conditions: Dose response TR-FRET screening of nine scaffold groups against MAGE-A11:PCF11; read-out: consensus IC50
# Outline: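 Competition TR-FRET at room temperature in 50 mM Tris pH 7.5, 20 mM MgCl2, 0.1 mg/ml BSA, 1 mM DTT: final 5 nM GST-MAGEA11 MHD, 5 nM Tb-anti-GST, 200 nM FAM-PCF11_4, 90 min. Ratio 520/490 nm converted to % inhibition; IC50 from sigmoidal fit.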
# interaction between GST-MAGEA11 MHD and FAM-PCF11_4 peptide (MAGE-A11:PCF11), sequence (P43364 218-429): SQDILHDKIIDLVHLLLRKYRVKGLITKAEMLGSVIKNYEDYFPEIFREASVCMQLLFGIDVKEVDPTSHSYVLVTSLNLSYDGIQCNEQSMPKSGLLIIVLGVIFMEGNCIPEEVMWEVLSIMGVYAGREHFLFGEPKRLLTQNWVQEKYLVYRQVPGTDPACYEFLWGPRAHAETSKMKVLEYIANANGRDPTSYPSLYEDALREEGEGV
row,SMILES,IC50 [µM]
1,COc1cccc(CNCCCNc2ccnc3cc(Oc4ccc(C(C)(C)C)cc4)ccc23)c1O [SJ000311235-1],7.65
2,CCCSc1nc2cc(-c3ccccc3)sc2c(=O)n1CCN1CCOCC1 [SJ000453419-1],69.9
3,CC(=O)N(C1=C(Cl)C(=O)c2ccccc2C1=O)c1ccc(F)cc1 [SJ000024947-1],69.9
4,CCOc1ccc(N(C(C)=O)C2=C(Cl)C(=O)c3ccccc3C2=O)cc1 [SJ000030567-2],69.9
5,CCCn1c(=O)[nH]c(=O)c2c1nc(-c1ccc(OC)cc1)n2CCOC [SJ000423271-1],69.9
6,CCCOc1ccc(-c2nc3c(=O)n(C)c(=O)n(C)c3[nH]2)cc1 [SJ000205042-1],69.9
7,CCCCn1c(-c2ccc(Cl)cc2)nc2c1c(=O)[nH]c(=O)n2Cc1ccccc1 [SJ000378907-1],69.9
8,COc1ccc(F)cc1CNCCCNc1ccnc2cc(-c3cccc4ccccc34)ccc12 [SJ000311277-1],10.3
9,Cn1c(-c2ccc(OCC(=O)O)cc2)nc2c1c(=O)[nH]c(=O)n2Cc1ccccc1 [SJ000441071-1],69.9
10,CCCCOC(=O)c1ccc(NC2=C(Cl)C(=O)c3ccccc3C2=O)cc1 [SJ000024923-1],69.9
11,Fc1ccc(CNCCCNc2ccnc3cc(Cl)ccc23)cc1 [SJ000523062-1],69.9
12,O=C1OCC(c2ccc(F)cc2)=C1c1ccc([N+](=O)[O-])cc1 [SJ000368155-1],69.9
13,CCCNC1=C(Cl)C(=O)c2ccccc2C1=O [SJ000141460-3],69.9
14,C=CCn1c(=O)c2c(nc(-c3ccccc3)n2C)n(C)c1=O [SJ000832270-1],85.8
15,CCn1c2ccccc2c2cc(CN3CCCC(O)C3)ccc21 (stereo not drawn) [SJ000550874-1],69.9
16,C=CCOc1ccc(-c2nc3c(c(=O)[nH]c(=O)n3Cc3ccccc3)n2CCCOC)cc1 [SJ000378880-1],69.9
17,COc1ccc(OC)c(Nc2nc(N)c3ccccc3n2)c1 [SJ000202008-1],69.9
18,COc1ccc(Br)cc1-c1nc2c(c(=O)[nH]c(=O)n2Cc2ccccc2)n1C [SJ000382136-1],69.9
19,COc1ccc(-c2cc3ncn(CC(=O)NCc4ccc(C)cc4)c(=O)c3s2)cc1 [SJ000445282-1],69.9
20,O=C(NCCO)c1ccc2[nH]c3ccccc3c2c1 [SJ000031065-1],69.9
21,CCCN1C(=O)c2ccccc2NC1c1ccc(OC)c(CSc2ccccn2)c1 (stereo not drawn) [SJ000288444-1],69.9
22,O=S(=O)(c1ccccc1)c1nc(-c2ccc(Cl)cc2)oc1N1CCOCC1 [SJ000230691-1],69.9

row,SMILES,IC50 [µM]
1,CCCn1cnc2cc(-c3ccc(Cl)cc3)sc2c1=O [SJ000452142-1],69.9
2,COc1ccc(F)cc1CNCCCNc1ccnc2cc(C(F)(F)F)ccc12 [SJ000521052-1],69.9
3,CCCn1c(=O)[nH]c(=O)c2c1nc(-c1ccc(OC)c(C)c1)n2CCOC [SJ000425187-1],69.9
4,Cn1c(-c2ccc(C(F)(F)F)cc2)nc2c1c(=O)[nH]c(=O)n2Cc1ccccc1 [SJ000404631-1],69.9
5,O=C1C(Cl)=C(Nc2ccc(Br)cc2)C(=O)c2ccccc21 [SJ000024921-1],69.9
6,CCCCOc1ccc(N(C(C)=O)C2=C(Cl)C(=O)c3ccccc3C2=O)cc1 [SJ000032717-1],8.71
7,COC(=O)CSc1nc2cc(-c3ccccc3)sc2c(=O)n1CCN1CCOCC1 [SJ000451551-1],69.9
8,CCCn1c(=O)[nH]c(=O)c2c1nc(-c1ccc(SC)cc1)n2CCOC [SJ000416762-1],69.9
9,COc1ccccc1CNC(=O)Cn1cnc2cc(-c3ccccc3)sc2c1=O [SJ000452125-1],69.9
10,CCCn1c(-c2ccc(OC)cc2)nc2c1c(=O)[nH]c(=O)n2Cc1ccccc1 [SJ000452204-1],69.9
11,CC(=O)Nc1ccc(NC2=C(Cl)C(=O)c3ccccc3C2=O)cc1 [SJ000024922-1],69.9
12,CCC(C)N1C(=O)c2ccccc2NC1c1cccc(OC)c1O (stereo not drawn) [SJ000413320-1],69.9
13,COCCn1c(-c2cccc(C)c2)nc2c1c(=O)[nH]c(=O)n2CC(C)C [SJ000426389-1],69.9
14,Fc1c(F)c(F)c(CNCCCNc2ccnc3cc(Cl)ccc23)c(F)c1F [SJ000520910-1],69.9
15,CCCCn1c(=O)[nH]c(=O)c2c1nc(-c1ccc([N+](=O)[O-])cc1)n2CC [SJ000378938-1],69.9
16,COc1cccc(Oc2ccc3c(NCCCNCc4cccc5c4OCO5)ccnc3c2)c1 [SJ000311216-1],36.9
17,COc1cc2nc(N3CCN(C(=O)OCc4ccccc4)C(C(=O)NC(C)(C)C)C3)nc(N)c2cc1OC (stereo not drawn) [SJ000288233-2],69.9
18,CC(C)Cn1c(-c2cc([N+](=O)[O-])ccc2Cl)nc2c1c(=O)[nH]c(=O)n2Cc1ccccc1 [SJ000390112-1],69.9
19,CC(NC=O)c1ccc2c(c1)c1ccccc1n2C (stereo not drawn) [SJ000461804-1],69.9
20,COc1ccc(C2Nc3ccccc3C(=O)N2Cc2ccccc2)cc1Cn1nc(C)c([N+](=O)[O-])c1C (stereo not drawn) [SJ000288419-1],69.9
21,CCCCn1c(=O)[nH]c(=O)c2c1nc(-c1ccc(OCCC)c(OCC)c1)n2CCOC [SJ000378946-1],69.9
22,COc1ccc(F)cc1CNCCCNc1ccnc2cc(Cc3ccc(F)cc3Cl)ccc12 [SJ000311325-1],17.6

# Same assay, conditions: Table 5, dose response TR-FRET screening of 59 quinoline compounds against MAGE-A11:PCF11; read-out: TR-FRET IC50
row,SMILES,IC50 [µM]
1,CN(C)c1cccc(Oc2ccc3c(NCCCNCc4ccco4)ccnc3c2)c1 [SJ000311230-1],> 70
2,Clc1ccc2c(NCCCN(Cc3ccccc3)Cc3ccc4[nH]ccc4c3)ccnc2c1 [SJ000520430-1],41.7
3,Cc1cc(C)cc(Cc2ccc3c(NCCCNCc4ccco4)ccnc3c2)c1 [SJ000311318-2],> 70

# Same assay, conditions: Table 8, representative compounds; read-out: TR-FRET IC50
row,SMILES,IC50 [µM]
1,Clc1ccc2c(NCCCNCc3ccc(-c4ccccc4)cc3)ccnc2c1 [SJ000523064],34.9
2,COc1ccc(F)cc1CNCCCNc1ccnc2cc(C(F)(F)F)ccc12 [SJ000521052],69.9
3,COc1ccccc1Oc1ccc2c(NCCCNCc3cccc(OC)c3O)ccnc2c1 [SJ000311211],69.9
4,COc1cccc(CNCCCNc2ccnc3cc(-c4cc(C(F)(F)F)cc(C(F)(F)F)c4)ccc23)c1O [SJ000311271],69.9
5,CC(C)Cc1ccc2c(NCCCNCc3cccc4c3OCO4)ccnc2c1 [SJ000311260],69.9
6,COc1ccc(OC(F)(F)F)cc1CNCCCNc1ccnc2cc(Cl)ccc12 [SJ000521035],69.9
7,Clc1ccc2c(NCCCNCc3ccc4ccccc4c3)ccnc2c1 [SJ000523065],69.9
8,COc1ccc(F)cc1CNCCCNc1ccnc2cc(-c3cc(C(F)(F)F)cc(C(F)(F)F)c3)ccc12 [SJ000311273],7.69
9,FC(F)(F)Oc1cccc(CNCCCNc2ccnc3cc(Cl)ccc23)c1 [SJ000521022],69.9
10,Fc1c(F)c(F)c(CNCCCNC2CCNC3(Cl)CCC23)c(F)c1F (stereo not drawn) [SJ000520910],69.9
11,Fc1cccc(C(F)(F)F)c1CNCCCNc1ccnc2cc(Cl)ccc12 [SJ000521031],69.9
12,COc1cccc(Oc2ccc3c(NCCCNCc4cccc5c4OCO5)ccnc3c2)c1 [SJ000311216],36.9
13,COc1ccc(F)cc1CNCCCNc1ccnc2cc(C3CCCCC3)ccc12 [SJ000311265],24.2
14,COc1ccc(F)c(CNCCCNc2ccnc3cc(C(F)(F)F)ccc23)c1 [SJ000521058],69.9
15,COc1cccc(CNCCCNc2ccnc3cc(Cc4cc(C)cc(C)c4)ccc23)c1O [SJ000311319],23.6
16,COc1ccc(F)cc1CNCCCNc1ccnc2cc(Cc3cc(C)cc(C)c3)ccc12 [SJ000311321],9.04
